Consider 61 molecules from US20160002247A1, “8-SUBSTITUTED IMIDAZOPYRIMIDINONE DERIVATIVE HAVING AUTOTAXIN INHIBITORY ACTIVITY” (THE UNIVERSITY OF TOKYO, priority 2013, published 2016).

Bounds are passed on as bounds.

Usually IC50 stands for the concentration that inhibits the measured activity by half.

The target of one assay is T1, Human autotaxin enzyme (Homo sapiens, UniProt Q13822).
T1 construct: purchased R&D System
Nature of the assay: Evaluation of autotaxin inhibitor, Method C (Test Example 3): 18:0 Lyso PC, choline assay, Resorufin fluorescence. Format: biochemical. As to conditions: Assay Method C (Test Example 3), human autotaxin, 18:0 Lyso PC substrate; read-out: Inhibitory Activity (autotaxin enzyme inhibitory activity, IC50 class). The method, then: (Method C) Evaluation of Autotaxin Inhibitor
Solution B containing 100 mM Tris-HCl buffer (pH7.5), 150 mM NaCl, 5 mM MgCl2 and 0.05% Triton X-100 was prepared. Human autotaxin enzyme (purchased from R&D System) was diluted with Solution B, and 2.5 μL of which was added to a solution of test compound in DMSO. Furthermore, 2.5 μl of 200 μM 18:0 Lyso PC (purchased from Avanti Polar Lipids) in Solution B was added and allowed to react at room temperature for 2 hours. After completion of the reaction, 15 μL of the coline assay reagent (100 mM Tris-HCl buffer (pH7.5), 5 mM MgCl2, 77 μg/mL choline oxidase, 10 μg/mL peroxidase, 25 μM 10-acetyl-3,7-dihydroxyphenoxazine and excess autotaxin inhibitor) was added and allowed to react at room temperature for 20 minutes. The fluorescent dye Resorufin, which was produced by the reaction, was detected. The fluorescence was detected using ViewLux (PerkinElmer, Inc.) with an excitation wavelength of 531 nm and a fluorescence wavelength of 598 nm.
The percent inhibition of the test compound was calculated by assuming the sample with no test compound as 0% inhibition and the sample with no enzyme as 100% inhibition, and the percent inhibitions at different concentrations of the test compound were plotted to obtain a concentration-dependent curve.
Regarding `Cc1cc(=O)n2cc(-c3ccc(Cl)cc3)nc2n1CCCCCC#N` [Compound 98], the IC50 fell in the range of 10 to 100 nM.

Take `Cc1cc(=O)n2cc(-c3ccc(Cl)cc3)nc2n1Cc1c(F)cccc1F` [Compound 119]: the IC50 lay within 100 to 1000 nM.

Take `O=c1cc(Cl)[nH]c2nc([C@H]3CC[C@H](C(F)(F)F)CC3)cn12` [Compound 135, 7-chloro-2-((1r,4r)-4-(trifluoromethyl)cyclohexyl)imidazo[1,2-a]pyrimidin-5(8H)-one]: the IC50 is > 1000 nM.

`NC(=O)c1ccc(-c2cc(=O)n3cc([C@H]4CC[C@H](C(F)(F)F)CC4)nc3n2CCCC(F)(F)F)cc1` [Compound 136, 4-(5-oxo-8-(4,4,4-trifluorobutyl)-2-((1r,4r)-4-(trifluoromethyl)cyclohexyl)-5,8-dihydroimidazo[1,2-a]pyrimidine-7-yl)benzamide]: the IC50 lay within 100 to 1000 nM.

For `CCCCCn1c(C)cc(=O)n2cc(C3CCC(C(F)(F)F)CC3)nc12` (stereo not shown) [Compound 137], the IC50 was 100 to 1000 nM.

For `O=C(O)c1ccc(-c2cc(=O)n3cc([C@H]4CC[C@H](C(F)(F)F)CC4)nc3n2CCCC(F)(F)F)cc1` [Compound 164], the IC50 was 10 to 100 nM.

With `O=C(NCCN1CC2(COC2)C1)c1ccc(-c2cc(=O)n3cc([C@H]4CC[C@H](C(F)(F)F)CC4)nc3n2CCCC(F)(F)F)cc1` [Compound 165], the IC50 is 10 to 100 nM.

Consider `CCCCCn1c(C)cc(=O)n2cc(-c3ccc(C(=O)O)cc3)nc12` [Compound 166], for which the half-maximal inhibitory concentration (IC50) was > 1000 nM.

Take `CCCCCn1c(N2CCN(CCC(=O)c3ccc4[nH]c(=O)oc4c3)CC2)cc(=O)n2cc(-c3ccc(Cl)cc3)nc12` [Compound 190]: the IC50 lay within 10 to 100 nM.

On to `CCCCCn1c(NCc2ccc(C(=O)O)cc2)cc(=O)n2cc(-c3ccc(Cl)cc3)nc12` [Compound 192], for which the IC50 lay within 10 to 100 nM.

For `CCCCCn1c(OCc2ccc(C(=O)O)cc2)cc(=O)n2cc(-c3ccc(Cl)cc3)nc12` [Compound 194], the IC50 is 10 to 100 nM.

For the molecule `CCCCCn1c(N(C)Cc2ccc(C(=O)O)cc2)cc(=O)n2cc(-c3ccc(Cl)cc3)nc12` [Compound 197], the IC50 is 10 to 100 nM.

In the case of `N#CCCCCn1c(NCc2ccc(C(=O)O)cc2)cc(=O)n2cc(-c3ccc(C(F)(F)F)cc3)nc12` [Compound 198], the IC50 is 10 to 100 nM.

As to `CCCCCn1c(C)c(CC(=O)OCC)c(=O)n2cc(-c3ccc(Cl)cc3)nc12` [Compound 202], the IC50 lay in the range of 10 to 100 nM.

On to `CCCCCn1c(C)c(CCO)c(=O)n2cc(-c3ccc(Cl)cc3)nc12` [Compound 207], for which the IC50 fell in the range of 10 to 100 nM.

On to `CCCCCn1c(N(C)Cc2ccccc2)cc(=O)n2cc(-c3ccc(Cl)cc3)nc12` [Compound 219], for which the IC50 lay in the range of 10 to 100 nM.

With `CCCCCn1c(N2CCN(C(C)=O)CC2)cc(=O)n2cc(-c3ccc(Cl)cc3)nc12` [Compound 242], the IC50 lay within 10 to 100 nM.

Regarding `N#CCCCCn1c(N2CCC(C(=O)O)CC2)cc(=O)n2cc(-c3ccc(Cl)cc3)nc12` [Compound 282], the IC50 was in the range of 10 to 100 nM.

Regarding `N#CCCCCn1c(N2CCC(C(=O)O)CC2)cc(=O)n2cc(-c3ccc(C#N)cc3)nc12` [Compound 284], the IC50 lay within 10 to 100 nM.

Turning to `N#CCCCCn1c(NCc2ccc(C(=O)O)cc2)cc(=O)n2cc(-c3ccc(C#N)cc3)nc12` [Compound 288], the IC50 lay within 10 to 100 nM.

Consider `CCCCCn1c(N2CCN(C(=O)N3CCCCC3)CC2)cc(=O)n2cc(-c3ccc(Cl)cc3)nc12` [Compound 291], for which the IC50 was in the range of 100 to 1000 nM.

Regarding `CCCCCn1c(N2CCN(C(=O)c3ccc([N+](=O)[O-])cc3)CC2)cc(=O)n2cc(-c3ccc(Cl)cc3)nc12` [Compound 292], the IC50 was in the range of 100 to 1000 nM.

In the case of `CCCCCn1c(N2CCNC(=O)C2)cc(=O)n2cc(-c3ccc(Cl)cc3)nc12` [Compound 293], the IC50 fell in the range of 100 to 1000 nM.

On to `CCCCCn1c(N2CCC(NC(C)=O)CC2)cc(=O)n2cc(-c3ccc(Cl)cc3)nc12` [Compound 294], for which the IC50 was in the range of 100 to 1000 nM.

With `CCCCCn1c(N2CCC(C(=O)NC)CC2)cc(=O)n2cc(-c3ccc(Cl)cc3)nc12` [Compound 295], the IC50 lay within 100 to 1000 nM.

For the molecule `CCCCCn1c(N2CCN(S(=O)(=O)N3CCOCC3)CC2)cc(=O)n2cc(-c3ccc(Cl)cc3)nc12` [Compound 296], the IC50 was 100 to 1000 nM.

For `CCCCCn1c(N2CCN(S(=O)(=O)N(C)C)CC2)cc(=O)n2cc(-c3ccc(Cl)cc3)nc12` [Compound 297], the IC50 lay in the range of 100 to 1000 nM.

For `CCCCCn1c(N2CCC(NS(C)(=O)=O)CC2)cc(=O)n2cc(-c3ccc(Cl)cc3)nc12` [Compound 298], the IC50 lay within 100 to 1000 nM.

For `CCCCCn1c(N2CCC(C(=O)N3CCCC3=O)CC2)cc(=O)n2cc(-c3ccc(Cl)cc3)nc12` [Compound 299], the IC50 was 10 to 100 nM.

Turning to `CCCCCn1c(N2CCCC(C)C2)cc(=O)n2cc(-c3ccc(Cl)cc3)nc12` (stereo not shown) [Compound 300], the half-maximal inhibitory concentration (IC50) lay within 100 to 1000 nM.

For `CCCCCn1c(N2CCCC(CO)C2)cc(=O)n2cc(-c3ccc(Cl)cc3)nc12` (stereo not shown) [Compound 301], the IC50 was 100 to 1000 nM.

Regarding `CCCCCn1c(N2CCCCC2CCO)cc(=O)n2cc(-c3ccc(Cl)cc3)nc12` (stereo not shown) [Compound 302], the IC50 was in the range of 10 to 100 nM.

Take `CCCCCn1c(N2CC(C)CC(C)C2)cc(=O)n2cc(-c3ccc(Cl)cc3)nc12` (stereo not shown) [Compound 303]: the IC50 is > 1000 nM.

For the molecule `CCCCCn1c(N2CCC[C@H]2CO)cc(=O)n2cc(-c3ccc(Cl)cc3)nc12` [Compound 304], the IC50 lay in the range of 100 to 1000 nM.

`CCCCCn1c(N2CCCC(c3ccccc3)C2)cc(=O)n2cc(-c3ccc(Cl)cc3)nc12` (stereo not shown) [Compound 305]: the IC50 is > 1000 nM.

Regarding `CCCCCn1c(N2CCCC2c2ccccc2)cc(=O)n2cc(-c3ccc(Cl)cc3)nc12` (stereo not shown) [Compound 306], the IC50 lay within 10 to 100 nM.

Take `CCCCCn1c(N2CCCC(C3CCCCC3)C2)cc(=O)n2cc(-c3ccc(Cl)cc3)nc12` (stereo not shown) [Compound 307]: the IC50 was > 1000 nM.

On to `CCCCCn1c(N2CCCC2CC(C)C)cc(=O)n2cc(-c3ccc(Cl)cc3)nc12` (stereo not shown) [Compound 308], for which the IC50 fell in the range of 10 to 100 nM.

Regarding `CCCCCn1c(N2CC=CC2)cc(=O)n2cc(-c3ccc(Cl)cc3)nc12` [Compound 309], the IC50 was 10 to 100 nM.

On to `CCCCCn1c(N2CCC(F)(F)CC2)cc(=O)n2cc(-c3ccc(Cl)cc3)nc12` [Compound 310], for which the IC50 fell in the range of 100 to 1000 nM.

For `CCCCCn1c(N2CCCC(CNC(=O)OC(C)(C)C)C2)cc(=O)n2cc(-c3ccc(Cl)cc3)nc12` (stereo not shown) [Compound 311], the IC50 lay in the range of 100 to 1000 nM.

Consider `CCCCCn1c(N2CCC3CN(C(=O)OC(C)(C)C)CC32)cc(=O)n2cc(-c3ccc(Cl)cc3)nc12` (stereo not shown) [Compound 312], for which the IC50 is 10 to 100 nM.

Regarding `CCCCCn1c(N2CCC3(CN(C(=O)OC(C)(C)C)C3)C2)cc(=O)n2cc(-c3ccc(Cl)cc3)nc12` [Compound 313], the IC50 is 100 to 1000 nM.

On to `CCCCCn1c(N2CC3CN(C(=O)OC(C)(C)C)CC3C2)cc(=O)n2cc(-c3ccc(Cl)cc3)nc12` (stereo not shown) [Compound 314], for which the IC50 is > 1000 nM.

`CCCCCn1c(N2CCCC(CC(=O)OCC)C2)cc(=O)n2cc(-c3ccc(Cl)cc3)nc12` (stereo not shown) [Compound 315]: the IC50 fell in the range of 100 to 1000 nM.

For `CCCCCn1c(N2CCCC(O)(c3ccc(F)cc3)C2)cc(=O)n2cc(-c3ccc(Cl)cc3)nc12` (stereo not shown) [Compound 317], the IC50 is > 1000 nM.

For the molecule `CCCCCn1c(N2CCC[C@H]2C(=O)Nc2ccccc2)cc(=O)n2cc(-c3ccc(Cl)cc3)nc12` [Compound 318], the half-maximal inhibitory concentration (IC50) lay within 100 to 1000 nM.

For `CCCCCn1c(N2CCCC(CC(=O)O)C2)cc(=O)n2cc(-c3ccc(Cl)cc3)nc12` (stereo not shown) [Compound 319], the concentration for half-maximal inhibition (IC50) is 10 to 100 nM.

Regarding `CCCCCn1c(N2CCCC2Cc2ccccc2)cc(=O)n2cc(-c3ccc(Cl)cc3)nc12` (stereo not shown) [Compound 320], the IC50 was in the range of 100 to 1000 nM.

`CCCCCn1c(N2CCCC(F)(F)C2)cc(=O)n2cc(-c3ccc(Cl)cc3)nc12` [Compound 321]: the IC50 is 100 to 1000 nM.

On to `CCCCCn1c(N2CCC(CCc3ccccc3)C2)cc(=O)n2cc(-c3ccc(Cl)cc3)nc12` (stereo not shown) [Compound 322], for which the IC50 is > 1000 nM.

For `CCCCCn1c(N2CCC(C(F)(F)F)C2)cc(=O)n2cc(-c3ccc(Cl)cc3)nc12` (stereo not shown) [Compound 323], the IC50 fell in the range of 100 to 1000 nM.

Consider `CCCCCn1c(N2CCC(N3CC(C(=O)OC(C)(C)C)C3)C2)cc(=O)n2cc(-c3ccc(Cl)cc3)nc12` (stereo not shown) [Compound 324], for which the IC50 lay within 100 to 1000 nM.

In the case of `CCCCCn1c(N2CCC(Cc3ccccc3)C2)cc(=O)n2cc(-c3ccc(Cl)cc3)nc12` (stereo not shown) [Compound 325], the IC50 was in the range of 100 to 1000 nM.

On to `CCCCCn1c(N2CCC[C@H]2C(=O)NCCC(=O)O)cc(=O)n2cc(-c3ccc(Cl)cc3)nc12` [Compound 326], for which the IC50 was < 10 nM.

The same assay, now with this note: Assay Method: Method C (Test Example 3); read-out: Inhibitory Activity (Enzyme Inhibitory Activity, IC50).
Consider `CCCC(=O)Cn1c(C)cc(=O)n2cc(-c3ccc(Cl)cc3)nc12` [Compound 41], for which the IC50 lay within 100 to 1000 nM.

Regarding `Cc1cc(=O)n2cc(-c3ccc(Cl)cc3)nc2n1CCCC(C)O` (stereo not shown) [Compound 46], the IC50 is > 1000 nM.

Turning to `CCC(O)CCn1c(C)cc(=O)n2cc(-c3ccc(Cl)cc3)nc12` (stereo not shown) [Compound 47], the IC50 was > 1000 nM.

As for `CCC(=O)CCn1c(C)cc(=O)n2cc(-c3ccc(Cl)cc3)nc12` [Compound 48], the IC50 was > 1000 nM.

`Cc1cc(=O)n2cc(-c3ccc(Cl)cc3)nc2n1CCCC(C)F` (stereo not shown) [Compound 49]: the IC50 fell in the range of 100 to 1000 nM.

For the molecule `Cc1cc(=O)n2cc(-c3ccc(Cl)cc3)nc2n1CCCCC#N` [Compound 63], the IC50 was 100 to 1000 nM.
